Tests used:
Assay type in all cases: functional, organism-based; call rule not given here
[1] = tested on: Human immunodeficiency virus 1; assay: Antiviral activity against recombinant HIV-1 NL4-3 expressing HIV-1 JR-CSF envelope infected in U87.CD4.CCR5 cells assessed as inhibition of Env mediated cell entry by HIV-1 single round infection assay; details: Human immunodeficiency virus 1, NL4-3, U87/CD4/CCR5
[2] = tested on: Human immunodeficiency virus 1; assay: Antiviral activity against recombinant HIV-1 NL4-3 expressing HIV-1 B41 envelope infected in U87.CD4.CCR5 cells assessed as inhibition of Env mediated cell entry by HIV-1 single round infection assay; details: Human immunodeficiency virus 1, NL4-3, U87/CD4/CCR5
[3] = tested on: Human immunodeficiency virus 1; assay: Antiviral activity against recombinant HIV-1 NL4-3 expressing HIV-1 HxBc2 envelope infected in U87.CD4.CXCR4 cells by HIV-1 single round infection assay; details: Human immunodeficiency virus 1, NL4-3, U87.CD4.CXCR4
[4] = tested on: Human immunodeficiency virus 1; assay: Antiviral activity against recombinant HIV-1 NL4-3 expressing AMLV envelope infected in U87.CD4.CCR5 cells assessed as inhibition of Env mediated cell entry by HIV-1 single round infection assay

Row | Structure (SMILES) | IC50 ([1]; read-out: IC50) | IC50 [2] | IC50 [3] | IC50 [4] | IC50 ([1]; read-out: pIC50 (converted))
1 | COc1cnc(-n2cnc(C)n2)c2[nH]cc(C(=O)NCC3CN(C(=O)c4ccccc4)C3)c12 | 2500 nM | 3800 nM | 3800 nM | Not Active | –
2 | COc1cnc(-n2cnc(C)n2)c2[nH]cc(C(=O)C(=O)NC3C4CN(C(=O)c5ccccc5)CC43)c12 (centres undefined) | 96 nM | 85 nM | 69 nM | Not Active | –
3 | COc1cnc(-n2cnc(C)n2)c2[nH]cc(C(=O)C(=O)N3CC4CN(C(=O)c5ccccc5)CC4C3)c12 (centres undefined) | 1 nM | – | – | – | 0.794 nM
4 | COc1cnc(-n2cnc(C)n2)c2[nH]cc(C(=O)C(=O)N3CC=C(CNC(=O)c4ccccc4)CC3)c12 | 224 nM | 350 nM | 380 nM | Not Active | –
5 | COc1cnc(-n2cnc(C)n2)c2[nH]cc(C(=O)C(=O)N3CCC4(CCN(C(=O)c5ccccc5)CC4)C3)c12 | 13000 nM | 3900 nM | 36000 nM | Not Active | 12900 nM
6 | COc1cnc(-n2cnc(C)n2)c2[nH]cc(C(=O)C(=O)N3CC(CCC(=O)c4ccccc4)C3)c12 | 3 nM | 7 nM | 9 nM | Not Active | –
7 | COc1cnc(-n2cnc(C)n2)c2[nH]cc(C(=O)C(=O)N3CC4CN(C(=O)C5=CCCCC5)CC4C3)c12 (centres undefined) | 2 nM | – | – | – | –
8 | COc1cnc(-n2cnc(C)n2)c2[nH]cc(C(=O)C(=O)N3CC4C=NN(c5ccccc5)C4C3)c12 (centres undefined) | 8 nM | 6 nM | 80 nM | Not Active | –
9 | COc1cnc(Cl)c2[nH]cc(C(=O)C(=O)N3CC4CN(C(=O)c5ccccc5)CC4C3)c12 (centres undefined) | 100000 nM | – | – | – | –

Source: ChEMBL document CHEMBL3745657, “Core chemotype diversification in the HIV-1 entry inhibitor class using field-based bioisosteric replacement” (Bioorg Med Chem Lett, 2016)
